Inhibition and Ratio IC50 data for four molecules are collected here from ChEMBL document CHEMBL4265991.

Assay [1] deals with Inosine-5'-monophosphate dehydrogenase (Cryptococcus neoformans var. neoformans serotype D (strain JEC21 /ATCC MYA-565) (Filobasidiella neoformans)) (UniProt Q5KP44). Description: Inhibition of recombinant Cryptococcus neoformans His-tagged IMPDH expressed in Escherichia coli BL21 (DE3) using IMP as substrate and DTT containing buffer in presence of NAD.
The nature of assay [2]: Selectivity index, ratio of IC50 for recombinant human His-tagged IMPDH1 to IC50 for recombinant Cryptococcus neoformans His-tagged IMPDH.
The nature of assay [3]: Selectivity index, ratio of IC50 for recombinant human His-tagged IMPDH2 to IC50 for recombinant Cryptococcus neoformans His-tagged IMPDH.

Activity calls are given as the source filed them. No cut-off for these calls is given here.

Chain of Inosine-5'-monophosphate dehydrogenase (Cryptococcus neoformans var. neoformans serotype D (strain JEC21 /ATCC MYA-565) (Filobasidiella neoformans)) (Q5KP44 whole entry, looked up): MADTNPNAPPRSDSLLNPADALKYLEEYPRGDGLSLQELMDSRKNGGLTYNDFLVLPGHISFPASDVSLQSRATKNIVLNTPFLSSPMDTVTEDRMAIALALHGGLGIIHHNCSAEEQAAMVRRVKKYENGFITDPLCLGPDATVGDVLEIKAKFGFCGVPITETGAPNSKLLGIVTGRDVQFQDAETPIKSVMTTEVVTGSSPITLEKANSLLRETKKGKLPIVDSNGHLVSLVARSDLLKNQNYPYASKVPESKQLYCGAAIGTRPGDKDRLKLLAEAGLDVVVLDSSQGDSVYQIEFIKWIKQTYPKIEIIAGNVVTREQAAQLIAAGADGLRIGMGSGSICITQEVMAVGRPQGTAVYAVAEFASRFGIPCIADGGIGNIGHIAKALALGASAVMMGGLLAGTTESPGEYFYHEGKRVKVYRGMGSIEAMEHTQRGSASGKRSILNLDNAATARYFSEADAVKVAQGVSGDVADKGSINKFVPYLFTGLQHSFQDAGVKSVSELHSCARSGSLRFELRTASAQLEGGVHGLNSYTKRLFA

Take `COc1ccccc1-c1nnc(SC2=CS(=O)(=O)c3ccccc32)o1`: in assay [1], the inhibition entry was “inactive”.

On to `COC(=O)c1ccc(-c2nnc(SC3=CS(=O)(=O)c4ccccc43)o2)cc1`, for which the Ratio IC50 in assay [2] and in assay [3] was above 30 in each case.

For `O=S1(=O)C=C(Sc2nnc(-c3ccccc3)o2)c2ccccc21`, in assay [1], the inhibition result is “inactive”.

Regarding `COc1ccc(-c2nnc(SC3=CS(=O)(=O)c4ccccc43)o2)cc1`, the Ratio IC50 in assay [2] and in assay [3] was above 30 throughout.
